Results published in patent US8921388B2, “Dihydroxypyrimidine carbonic acid derivatives and their use in the treatment, amelioration or prevention of a viral disease” (priority 2012, dated 2014).

Target: T1, influenza A virus (IAV) PA-Nter fragment (amino acids 1-209) harbouring the influenza endonuclease activity (Influenza A virus, UniProt P31343)
T1 construct: PA-Nter fragment (amino acids 1-209); made in house
Assay: FRET endonuclease activity assay
Assay type: biochemical
Conditions: for IC50: calculated from initial reaction velocities (v0), 0.5 μM PA-Nter, 1.6 μM RNA substrate; for FRET % reduction of v0: @ 10 μM, compound-treated compared to untreated

| Structure (SMILES) | IC50 | FRET % reduction of v0 |
| --- | --- | --- |
| COC(=O)c1nc(CC2(c3ccccc3)CCCC2)nc(O)c1O | 0.41 µM |  |
| NC(=O)c1nc(CC2(c3ccccc3)CCCC2)nc(O)c1O | 0.24 µM |  |
| O=C(NCc1ccccc1)c1nc(CC2(c3ccccc3)CCCC2)nc(O)c1O | 1.1 µM |  |
| O=C(O)c1nc(Cc2ccccc2-c2ccccc2)nc(O)c1O | 0.04 µM |  |
| O=C(NCc1ccccc1)c1nc(Cc2ccccc2-c2ccccc2)nc(O)c1O | 16 µM |  |
| O=C(O)c1nc(CC2(c3ccccc3)CCCC2)nc(O)c1O | 0.08 µM |  |
| CNC(=O)c1nc(CC2(c3ccccc3)CCCC2)nc(O)c1O | 0.14 µM |  |
| CNC(=O)c1nc(Cc2ccccc2-c2ccccc2)nc(O)c1O | 0.66 µM |  |
| CC(C)NC(=O)c1nc(Cc2ccccc2-c2ccccc2)nc(O)c1O | 8.2 µM |  |
| O=C(NCc1ccc(F)cc1)c1nc(Cc2ccccc2-c2ccccc2)nc(O)c1O | 1.7 µM |  |
| O=C(NCCc1ccccc1)c1nc(Cc2ccccc2-c2ccccc2)nc(O)c1O | 3.8 µM |  |
| O=C(c1nc(Cc2ccccc2-c2ccccc2)nc(O)c1O)N1CCCC1 | 1.1 µM |  |
| O=C(O)c1nc(CC(c2ccccc2)c2ccccc2)nc(O)c1O | 2.5 µM |  |
| O=C(O)c1nc(Cc2ccc(F)cc2Br)nc(O)c1O | 0.18 µM |  |
| COC(=O)c1nc(Cc2ccccc2-c2ccccc2C)nc(O)c1O | 0.12 µM |  |
| CCCNC(=O)c1nc(Cc2ccccc2-c2ccccc2)nc(O)c1O | 8.8 µM |  |
| CCOC(=O)c1nc(Cc2cncn2Cc2ccccc2)nc(O)c1O | 9.5 µM |  |
| COC(=O)c1nc(Cc2ccc(F)cc2Br)nc(O)c1O | 1.5 µM |  |
| NC(=O)c1nc(Cc2ccc(F)cc2Br)nc(O)c1O | 2.7 µM |  |

| Structure (SMILES) | IC50 | FRET % reduction of v0 |
| --- | --- | --- |
| COC(=O)c1nc(Cc2ccccc2-c2cccc(C)c2)nc(O)c1O | 0.35 µM |  |
| Cc1cccc(-c2ccccc2Cc2nc(C(N)=O)c(O)c(=O)[nH]2)c1 | 0.55 µM |  |
| CCOC(=O)c1nc(Cc2ccccc2-c2cc(C)ccc2C)nc(O)c1O | 0.22 µM |  |
| CCOC(=O)c1nc(CC2CCCCC2)nc(O)c1O | 3.2 µM |  |
| COC(=O)c1nc(Cc2ccccc2Br)nc(O)c1OC(C)=O | 7.9 µM |  |
| CNC(=O)c1nc(Cc2ccccc2Br)nc(O)c1O | 5.7 µM |  |
| Cc1cccc(-c2ccccc2Cc2nc(O)c(O)c(C(=O)O)n2)c1 | 0.23 µM |  |
| Cc1ccc(C)c(-c2ccccc2Cc2nc(O)c(O)c(C(=O)O)n2)c1 | 0.03 µM |  |
| CNC(=O)c1nc(CC2CCCCC2)nc(O)c1O | 6.5 µM |  |
| CNC(=O)c1nc(Cc2ccccc2-c2cc(C)ccc2C)nc(O)c1O | 0.53 µM |  |
| CC(C)NC(=O)c1nc(Cc2cccc(Br)c2)nc(O)c1O | 23 µM |  |
| O=C(NCc1ccc(Cl)cc1)c1nc(Cc2ccccc2Br)nc(O)c1O |  | 37% @ 10 μM |
| O=C(O)c1nc(CC2CCCCC2)nc(O)c1O | 0.21 µM |  |
| COC(=O)c1nc(Cc2ccccc2-c2cc(C)ccc2C)nc(O)c1O | 0.15 µM |  |
| O=C(O)c1nc(Cc2ccccc2Br)nc(O)c1O | 0.25 µM |  |
| Cc1ccccc1Cc1nc(O)c(O)c(C(=O)O)n1 | 0.27 µM |  |
| O=C(NCc1ccc(F)cc1)c1nc(Cc2ccccc2Br)nc(O)c1O | 27 µM |  |
| Cc1ccc(C)c(-c2ccccc2Cc2nc(O)c(O)c(C(=O)OC(C)(C)C)n2)c1 | 1.1 µM |  |
| O=C(NCc1ccc(Cl)cc1)c1nc(Cc2ccccc2-c2ccccc2)nc(O)c1O | 1.8 µM |  |

| Structure (SMILES) | IC50 | FRET % reduction of v0 |
| --- | --- | --- |
| Cc1ccccc1-c1ccccc1Cc1nc(O)c(O)c(C(=O)O)n1 | 0.24 µM |  |
| O=C(O)c1nc(Cc2cc(C(F)(F)F)ccc2Br)nc(O)c1O | 0.16 µM |  |
| CNC(=O)c1nc(Cc2ccccc2-c2ccccc2)n(C)c(=O)c1O | 23 µM |  |
| Cn1c(CC2(c3ccccc3)CCCC2)nc(C(=O)O)c(O)c1=O | 0.26 µM |  |
| Cn1c(Cc2ccccc2-c2ccccc2)nc(C(=O)O)c(O)c1=O | 1.3 µM |  |
| Cn1c(Cc2ccccc2-c2ccccc2)nc(C(N)=O)c(O)c1=O | 1.3 µM |  |
| CC(C)NC(=O)c1nc(Cc2ccccc2-c2ccccc2)n(C)c(=O)c1O | 14 µM |  |
| CNC(=O)c1nc(CC2(c3ccccc3)CCCC2)n(C)c(=O)c1O | 0.41 µM |  |
| CNC(=O)c1nc(NS(=O)(=O)Cc2cccc(C)c2)n(C)c(=O)c1O | 6.8 µM |  |
| COC(=O)c1nc(CC2CCCCC2)n(C)c(=O)c1O |  | 25% @ 10 μM |
| CNC(=O)c1nc(NS(=O)(=O)Cc2ccc(C)cc2)n(C)c(=O)c1O | 13 µM |  |
| Cn1c(NS(=O)(=O)Cc2ccc(Cl)cc2)nc(C(=O)O)c(O)c1=O | 0.54 µM |  |
| O=C(O)c1c(O)c(=O)nc(Cc2ccccc2)n1Cc1ccccc1 | 3.8 µM |  |
| O=C(O)c1c(O)c(=O)nc(Cc2ccccc2Br)n1Cc1ccccc1 | 5.7 µM |  |
| CNC(=O)c1nc(NS(=O)(=O)Cc2ccccc2)n(C)c(=O)c1O | 3 µM |  |
| CNC(=O)c1nc(NS(=O)(=O)Cc2ccc(Cl)cc2)n(C)c(=O)c1O | 5.8 µM |  |
| COC(=O)c1c(O)c(=O)nc(Cc2ccccc2Br)n1Cc1ccccc1 |  | 23% @ 10 μM |
| COC(=O)c1c(O)c(=O)nc(Cc2ccccc2)n1Cc1ccccc1 | 19 µM |  |
